# According to patent publication US20250213569A1, “METHODS AND COMPOSITIONS FOR MEASURING AND INHIBITING EXONUCLEASE ACTIVITY” (priority 2020, published 2025):
# Like-named read-outs stand apart in the source and are kept apart here.
# Columns and labels:
# [1] = molecular target: SARS-CoV2 NSP14/NSP10 exonuclease (Severe acute respiratory syndrome coronavirus 2 (2019-nCoV) (SARS-CoV-2), UniProt P0DTD1); experiment: biochemical; design: inhibition of NSP14/NSP10 complex exonuclease activity: dose or concentration left out as unconfirmed; details: for Inhibitory activity present: class symbols − to +++++, key not given
# A549 cells [2] = experiment: AlamarBlue viability assay; details: A549 human lung cells, 48 hours
# [3] = Solubility issue (Table 2)
# unbound NSP10 = experiment: FRET-based activity assay, non-specific background of unbound NSP10; format: biochemical; details: dose-response, FIG. 11B
# NSP14/10 complex = NSP14/10 complex (Severe acute respiratory syndrome coronavirus 2 (2019-nCoV) (SARS-CoV-2), UniProt P0DTD1); experiment: Gel electrophoresis assay of Oligo B digestion; format: biochemical; details: for NSP14/NSP10 complex inhibitory potential (gel): concentrations as in FIG. 55
# HCoV-OC43 = HCoV-OC43 infection of HMC3 cells, combination with remdesivir; format: cell-based; details: #112: 60 μM, #77: […] μM, #68: 25 μM
# SARS-CoV2 = format: cell-based; details: A549-ACE2 cells; #112: 60 μM, #77: […] μM, #68: 25 μM
# A549 cells [4] = tested on: A549 cells
# [5] = Oligo D, linear reaction range, less than 60% of total substrate consumed at readout, read-out: half maximal inhibitory concentration (IC50)
# [6] = Table 2, read-out: SARS-CoV2 IC50
structure (smiles),measurement,setting,value
CC(C)=CCOc1ccc(/C=C/C(=O)c2ccc(OCC=C(C)C)cc2OCC(=O)O)cc1 [Sofalcone],IC50,[1]; [5],28.8 µM
"O=c1cc(-c2ccc(O)cc2)oc2cc(O)c(O)c(O)c12 [Compound 62, Scutellarein]",Toxicity at IC50,A549 cells [2],no
"O=C(/C=C/c1ccc(O)cc1)c1c(O)cc(O)cc1O [Compound 73, Naringenin chalcone]",Toxicity at IC50,A549 cells [2],Yes
"CC(C)c1cc(Cc2cc(C(C)C)cc(C(=O)O)c2O)c(O)c(C(=O)O)c1 [Compound 65, 3-[(3-Carboxy-2-hydroxy-5-propan-2-ylphenyl)methyl]-2-hydroxy-5-propan-2-ylbenzoic acid]",Toxicity at IC50,A549 cells [2],no
"O=P(O)(O)c1ccc2ccc(CCc3ccc(O)c(O)c3)nc2c1O [Compound 100, 2-(3,4-dihydroxyphenethyl)-8-hydroxyquinoline-7-phosphonic acid]",Toxicity at IC50,A549 cells [2],No
"Cc1c(S(=O)(=O)[O-])oc2c1C(=O)C(=O)c1c-2ccc2c1CCCC2(C)C.[Na+] [Compound 60, Tanshinone IIA sulfonate]",Toxicity at IC50,A549 cells [2],no
same,Solubility issue,[3],no
"O=C1Cc2ccccc2C(=O)N1O [Compound 13, 2-Hydroxyisoquinoline-1,3(2H,4H)-dione]",Toxicity at IC50,A549 cells [2],Yes
same,inhibition of non-specific background of NSP10,unbound NSP10,did not inhibit the non-specific background of NSP10
same,inhibition of NSP14/NSP10 complex exonuclease activity,[1]; Oligo E (TexasRed-BHQ2),showed inhibition
same,"Inhibition of NSP14/10 (Oligo B digestion, gel)",NSP14/10 complex; 500 μM versus 100 μM,greater at higher (500 μM) versus lower (100 μM) concentrations
"O=C(NCc1ccc(F)cc1)C1C(=O)N(O)C(=O)c2cc(C(F)(F)F)ccc21 (stereo not shown) [Compound 112, 7-trifluoromethyl-N-(4-fluorobenzyl)-2-hydroxy-1,3-dioxo-4H-isoquinoline-4-carboxamide]",lowering of the EC50 values of remdesivir,HCoV-OC43,~5 fold
same,NSP14/NSP10 complex inhibitory potential (gel),NSP14/10 complex,indeed novel NSP14 inhibitors
same,lowering of the EC50 values of remdesivir,SARS-CoV2,~5 fold
"O=C(O)c1ccc2ccc(/C=C/c3ccc(O)c(O)c3)nc2c1O [Compound 79, 2-(3,4-dihydroxystyryl)-8-hydroxyquinoline-7-carboxylic acid]",Toxicity at IC50,A549 cells [2],No
"O=C(O)c1ccc2ccc(/C=C/c3cc(Br)c(O)c(Br)c3)nc2c1O [Compound 88, 2-(3,5-dibromo-4-hydroxystyryl)-8-hydroxyquinoline-7-carboxylic acid]",Toxicity at IC50,A549 cells [2],No
"Oc1ccc(/C=C/c2ccc3cccc(O)c3n2)cc1O [Compound 92, 2-(3,4-dihydroxystyryl)-8-hydroxyquinoline]",Toxicity at IC50,A549 cells [2],Yes
"Oc1ccc(CC2NCCc3cc(O)c(O)cc32)cc1O (stereo not shown) [Compound 54, Tetrahydropapaveroline]",Toxicity at IC50,A549 cells [2],no
same,NSP14/NSP10 complex inhibitory potential (gel),NSP14/10 complex,indeed novel NSP14 inhibitors
same,Solubility issue,[3],no
O=c1oc2ccccc2c(O)c1Cc1c(O)c2ccccc2oc1=O [Dicoumarol],IC50,[1]; [5],> 500 µM
"CC(C)=CCc1cc(C(=O)/C=C/c2ccc(O)cc2)c(O)cc1O [Compound 57, Bavachalcone]",Toxicity at IC50,A549 cells [2],yes
"O=C(O)c1ccc2ccc(/C=C/c3ccc(F)c(F)c3)nc2c1O [Compound 89, 2-(3,4-difluorostyryl)-8-hydroxyquinoline-7-carboxylic acid]",Toxicity at IC50,A549 cells [2],Yes
"CC(C)=CCc1c(O)ccc(C(=O)/C=C/c2ccc(O)c(O)c2)c1O [Compound 72, Corylifol B]",Inhibitory activity present,[1],+++/ ++++
"CC(C)=CCc1c2c(c3occ(-c4ccc(O)c(O)c4)c(=O)c3c1O)C=CC(C)(C)O2 [Compound 69, Pomiferin]",Toxicity at IC50,A549 cells [4],Yes
"O=C(O)c1cc(Cc2ccc(O)c(C(=O)O)c2)ccc1O [Compound 30, 5,5′-Methylenedisalicylic acid]",Toxicity at IC50,A549 cells [2],No
"Cc1ccc2ccc(C(=O)O)c(O)c2n1 [Compound 78, 2-methyl-8-hydroxyquinoline-7-carboxylic acid]",Toxicity at IC50,A549 cells [2],No
"O=C(NCc1ncc[nH]1)c1c(O)cnc2ccccc12 [Compound 31, 3-Hydroxy-N-[(1H-imidazol-2-yl)methyl]quinoline-4-carboxamide]",Toxicity at IC50,A549 cells [2],No
"COc1cc(O)c(CC=C(C)C)c(O)c1C(=O)/C=C/c1ccc(O)cc1 [Compound 58, Xanthohumol]",Toxicity at IC50,A549 cells [2],yes
CC(C)=CCc1c(O)ccc(C(=O)/C=C/c2ccc(O)cc2)c1O [Isobavachalcone],IC50,[1]; [5],16.6 µM
"CC(C)=CCOc1ccc(/C=C/C(=O)c2ccc(OCC=C(C)C)cc2OCC(=O)O)cc1 [Compound 68, Sofalcone, reference compound]",lowering of the EC50 values of remdesivir,HCoV-OC43,~5 fold
same,Toxicity at IC50,A549 cells [4],Some
same,IC50,[1]; read-out: SARS-CoV2 IC50,22 ± 6.02 µM
same,NSP14/NSP10 complex inhibitory potential (gel),NSP14/10 complex,indeed novel NSP14 inhibitors
same,lowering of the EC50 values of remdesivir,SARS-CoV2,~5 fold
"O=c1oc2ccccc2c(O)c1Cc1c(O)c2ccccc2oc1=O [Compound 23, Dicoumarol, reference compound]",IC50,[1]; [6],> 500 µM
"O=C(c1ccc(F)c(F)c1)c1ccc2ccc(/C=C/c3ccc(O)c(O)c3)nc2c1O [Compound 93, 7-(3,4-difluorobenzoyl)-2-(3,4-dihydroxyvinyl)-8-hydroxyquinoline]",Toxicity at IC50,A549 cells [2],Yes
"CC(C)=CCc1c(O)ccc(C(=O)/C=C/c2ccc(O)cc2)c1O [Compound 77, Isobavachalcone]",Toxicity at IC50,A549 cells [2],some
same,lowering of the EC50 values of remdesivir,HCoV-OC43,~5 fold
same,IC50,[1]; read-out: SARS-CoV2 IC50,17.4 ± 1.39 µM
same,NSP14/NSP10 complex inhibitory potential (gel),NSP14/10 complex,indeed novel NSP14 inhibitors
same,lowering of the EC50 values of remdesivir,SARS-CoV2,~5 fold
"CC(C)=CCc1c(O)ccc(C(=O)/C=C/c2ccc(O)cc2O)c1O [Compound 74, Morachalcone A]",Toxicity at IC50,A549 cells [2],Yes
"O=C(O)c1cc(/C=C/c2ccc3ccc(C(=O)O)c(O)c3n2)ccc1O [Compound 90, 2-(3-carboxy-4-hydroxystyryl)-8-hydroxyquinoline-7-carboxylic acid]",Toxicity at IC50,A549 cells [2],No
"CC1(C)CCc2c(O)ccc(C(=O)/C=C/c3ccc(O)cc3)c2O1 [Compound 75, Isodorsmanin A]",Toxicity at IC50,A549 cells [2],Yes
"CC(C)=CCc1c(O)cc(O)c(C(=O)/C=C/c2ccc(O)cc2)c1O [Compound 71, Desmethylxanthohumol]",Toxicity at IC50,A549 cells [2],Yes
same,Inhibitory activity present,[1],+++/ ++++
"COc1ccc2nc(O)c(-c3noc(-c4ccc(F)cc4)n3)cc2c1 [Compound 109, 3-(5-(4-Fluorophenyl)-1,2,4-oxadiazol-3-yl)-6-methoxyquinolin-2-ol]",Solubility issue,[3],No
"O=C(O)c1cc2cc(-c3ccccc3)ccc2[nH]c1=O [Compound 53, 2-Oxo-6-phenyl-1H-quinoline-3-carboxylic acid]",Toxicity at IC50,A549 cells [2],no
"O=C(O)c1c(O)c(Cc2ccc(Cl)cc2)nc2c3c(ccc12)CCCC3 [Compound 59, 2-(4-Chlorobenzyl)-3-hydroxy-7,8,9,10-tetrahydrobenzo(H)quinoline-4-carboxylic acid]",Toxicity at IC50,A549 cells [2],yes
"O=C(/C=C/c1ccc(O)c(O)c1)c1ccc(O)c(O)c1O [Compound 76, Okanin]",Toxicity at IC50,A549 cells [2],Yes
"O=C(O)c1ccc2nc(/C=C/c3ccc(O)c(O)c3)ccc2c1O [Compound 99, 2-(3,4-dihydroxystyryl)-5-hydroxyquinoline-6-carboxylic acid]",Toxicity at IC50,A549 cells [2],Yes
"O=C(O)c1ccc2ccc(CCc3ccc(O)c(O)c3)nc2c1O [Compound 94, 2-(3,4-dihydroxyphenethyl)-8-hydroxyquinoline-7-carboxylic acid]",Toxicity at IC50,A549 cells [2],No
CC(C)=CCc1c2c(c3occ(-c4ccc(O)c(O)c4)c(=O)c3c1O)C=CC(C)(C)O2 [Pomiferin],IC50,[1]; [5],5.9 µM
"O=c1c2[nH]c3ccccc3c2ncn1CCc1ccc(F)cc1 [Compound 105, 3-[2-(4-Fluorophenyl)ethyl]-3,5-dihydro-4H-pyrimido[5,4-b]indol-4-one]",IC50,[1]; [6],217 µM
